Measured values as given in ChEMBL document CHEMBL1145159 (J Med Chem, 2005).
Peptide text beside a SMILES is read from it.

Columns and labels:
[1] = molecular target: Neuronal acetylcholine receptor; alpha4/beta4 (Homo sapiens, UniProt P30926+P43681); test: Inhibitory concentration against Nicotinic acetylcholine receptor alpha4-beta4; Range is 0.3-1.5 nM; type: protein-complex assay
[2] = molecular target: Neuronal acetylcholine receptor; alpha3/beta2 (Homo sapiens, UniProt P17787+P32297); test: Inhibitory concentration against Nicotinic acetylcholine receptor alpha3-beta2; Range is 0.3-1.5 nM; type: protein-complex assay
[3] = molecular target: Neuronal acetylcholine receptor; alpha2/beta2 (Homo sapiens, UniProt P17787+Q15822); test: Inhibitory concentration against Nicotinic acetylcholine receptor alpha2-beta2; Range is 0.3-1.5 nM; type: protein-complex assay
[4] = molecular target: Neuronal acetylcholine receptor; alpha3/beta4 (Homo sapiens, UniProt P30926+P32297); test: Inhibitory concentration against Nicotinic acetylcholine receptor alpha3-beta4; Range is 0.3-1.5 nM; type: protein-complex assay
[5] = molecular target: Neuronal acetylcholine receptor; alpha2/beta4 (Homo sapiens, UniProt P30926+Q15822); test: Inhibitory concentration against Nicotinic acetylcholine receptor alpha2-beta4; Range is 0.3-1.5 nM; type: protein-complex assay
[6] = molecular target: Neuronal acetylcholine receptor; alpha4/beta2 (Homo sapiens, UniProt P17787+P43681); test: Inhibitory concentration against Nicotinic acetylcholine receptor alpha4-beta2; Range is 0.3-1.5 nM; type: protein-complex assay
[7] = molecular target: Neuronal acetylcholine receptor subunit alpha-7 (Homo sapiens, UniProt P36544); test: Inhibitory concentration against Nicotinic acetylcholine receptor alpha7; Range is 0.3-1.5 nM
[8] = Inhibitory concentration against Nicotinic acetylcholine receptor alpha-6-alpha-3-beta-2; Range is 0.3-1.5 nM; parameters: species or system Homo sapiens
[9] = Inhibitory concentration against Nicotinic acetylcholine receptor alpha 6/alpha-3-beta-4; Range is 0.3-1.5 nM; parameters: species or system Homo sapiens

Measured: IC50

Neuronal acetylcholine receptor; alpha3/beta2, sequence (P17787 whole entry): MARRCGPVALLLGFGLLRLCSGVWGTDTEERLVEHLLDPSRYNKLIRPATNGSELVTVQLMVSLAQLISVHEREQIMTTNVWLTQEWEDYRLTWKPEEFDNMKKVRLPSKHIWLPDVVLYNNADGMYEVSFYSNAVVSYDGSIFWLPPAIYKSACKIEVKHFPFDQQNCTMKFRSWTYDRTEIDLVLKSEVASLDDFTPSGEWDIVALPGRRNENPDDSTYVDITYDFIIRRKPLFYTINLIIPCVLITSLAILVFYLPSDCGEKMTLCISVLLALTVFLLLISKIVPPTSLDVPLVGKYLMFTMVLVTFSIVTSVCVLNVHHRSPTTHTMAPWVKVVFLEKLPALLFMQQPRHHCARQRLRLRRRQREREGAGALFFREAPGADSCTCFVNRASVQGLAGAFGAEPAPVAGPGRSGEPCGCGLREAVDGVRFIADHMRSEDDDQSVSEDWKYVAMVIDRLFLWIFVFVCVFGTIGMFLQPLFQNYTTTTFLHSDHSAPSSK
Neuronal acetylcholine receptor; alpha3/beta2, sequence (P32297 whole entry): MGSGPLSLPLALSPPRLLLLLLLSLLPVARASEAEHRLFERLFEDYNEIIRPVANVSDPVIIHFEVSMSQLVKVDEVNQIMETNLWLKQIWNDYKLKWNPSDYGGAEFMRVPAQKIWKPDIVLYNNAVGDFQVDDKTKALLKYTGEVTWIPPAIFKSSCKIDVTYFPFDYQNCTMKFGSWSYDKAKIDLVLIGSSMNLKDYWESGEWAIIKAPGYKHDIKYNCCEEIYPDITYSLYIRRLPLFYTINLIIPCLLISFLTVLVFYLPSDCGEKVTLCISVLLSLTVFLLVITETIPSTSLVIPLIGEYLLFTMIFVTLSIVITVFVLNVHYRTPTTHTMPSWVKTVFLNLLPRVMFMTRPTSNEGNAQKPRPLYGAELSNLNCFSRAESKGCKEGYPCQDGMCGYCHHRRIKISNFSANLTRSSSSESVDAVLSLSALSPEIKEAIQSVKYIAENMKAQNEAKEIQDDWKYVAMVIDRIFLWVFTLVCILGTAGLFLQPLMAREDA
Neuronal acetylcholine receptor; alpha2/beta2, sequence (P17787 whole entry): as the sequence (P17787 whole entry) above
Neuronal acetylcholine receptor; alpha2/beta2, sequence (Q15822 whole entry): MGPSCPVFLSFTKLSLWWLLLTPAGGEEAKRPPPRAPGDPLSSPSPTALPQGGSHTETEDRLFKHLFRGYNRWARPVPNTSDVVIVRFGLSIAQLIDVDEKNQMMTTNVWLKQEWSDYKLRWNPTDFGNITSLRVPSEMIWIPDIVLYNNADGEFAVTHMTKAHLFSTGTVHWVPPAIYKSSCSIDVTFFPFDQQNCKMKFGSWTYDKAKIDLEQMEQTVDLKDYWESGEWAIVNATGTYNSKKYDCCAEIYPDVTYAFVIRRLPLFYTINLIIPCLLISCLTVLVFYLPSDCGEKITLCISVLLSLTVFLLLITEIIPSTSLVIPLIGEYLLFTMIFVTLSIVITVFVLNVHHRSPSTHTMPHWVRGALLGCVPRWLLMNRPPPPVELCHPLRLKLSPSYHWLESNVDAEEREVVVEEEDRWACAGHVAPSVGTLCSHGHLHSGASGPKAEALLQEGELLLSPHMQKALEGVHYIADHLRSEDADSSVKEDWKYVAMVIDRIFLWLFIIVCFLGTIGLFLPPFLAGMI
Neuronal acetylcholine receptor; alpha4/beta2, sequence (P17787 whole entry): as the sequence (P17787 whole entry) above
Neuronal acetylcholine receptor; alpha4/beta2, sequence (P43681 whole entry): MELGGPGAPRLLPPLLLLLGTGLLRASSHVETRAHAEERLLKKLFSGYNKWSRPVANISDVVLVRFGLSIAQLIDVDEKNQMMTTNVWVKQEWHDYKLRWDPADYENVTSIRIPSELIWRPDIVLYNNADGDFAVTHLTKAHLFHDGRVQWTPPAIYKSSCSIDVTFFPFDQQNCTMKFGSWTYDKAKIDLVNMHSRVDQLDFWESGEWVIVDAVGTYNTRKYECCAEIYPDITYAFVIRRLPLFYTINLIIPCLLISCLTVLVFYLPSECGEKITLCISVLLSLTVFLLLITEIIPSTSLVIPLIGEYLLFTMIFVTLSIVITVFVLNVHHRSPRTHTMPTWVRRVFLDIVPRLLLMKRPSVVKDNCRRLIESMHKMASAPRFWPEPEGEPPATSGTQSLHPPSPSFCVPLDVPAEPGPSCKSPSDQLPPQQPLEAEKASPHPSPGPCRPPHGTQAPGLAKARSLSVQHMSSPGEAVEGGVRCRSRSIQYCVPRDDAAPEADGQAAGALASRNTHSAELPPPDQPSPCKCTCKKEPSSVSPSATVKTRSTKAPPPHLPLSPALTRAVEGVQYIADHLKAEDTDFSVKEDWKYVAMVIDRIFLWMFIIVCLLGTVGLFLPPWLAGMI
Neuronal acetylcholine receptor; alpha2/beta4, sequence (P30926 whole entry): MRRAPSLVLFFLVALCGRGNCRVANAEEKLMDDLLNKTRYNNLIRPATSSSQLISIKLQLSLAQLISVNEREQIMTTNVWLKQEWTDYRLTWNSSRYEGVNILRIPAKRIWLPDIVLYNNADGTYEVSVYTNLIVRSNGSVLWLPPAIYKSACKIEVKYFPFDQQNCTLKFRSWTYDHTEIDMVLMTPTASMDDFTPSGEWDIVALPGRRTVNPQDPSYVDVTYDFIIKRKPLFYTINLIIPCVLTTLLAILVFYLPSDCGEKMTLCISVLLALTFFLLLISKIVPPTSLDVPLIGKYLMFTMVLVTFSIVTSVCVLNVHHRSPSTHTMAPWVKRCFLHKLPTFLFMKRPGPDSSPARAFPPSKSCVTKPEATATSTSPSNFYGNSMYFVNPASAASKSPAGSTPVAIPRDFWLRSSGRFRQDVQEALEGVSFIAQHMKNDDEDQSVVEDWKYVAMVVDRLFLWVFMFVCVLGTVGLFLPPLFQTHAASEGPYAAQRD
Neuronal acetylcholine receptor; alpha2/beta4, sequence (Q15822 whole entry): as the sequence (Q15822 whole entry) above
Neuronal acetylcholine receptor; alpha3/beta4, sequence (P30926 whole entry): as the sequence (P30926 whole entry) above
Neuronal acetylcholine receptor; alpha3/beta4, sequence (P32297 whole entry): as the sequence (P32297 whole entry) above
Neuronal acetylcholine receptor; alpha4/beta4, sequence (P30926 whole entry): as the sequence (P30926 whole entry) above
Neuronal acetylcholine receptor; alpha4/beta4, sequence (P43681 whole entry): as the sequence (P43681 whole entry) above
Neuronal acetylcholine receptor subunit alpha-7, sequence (P36544 whole entry): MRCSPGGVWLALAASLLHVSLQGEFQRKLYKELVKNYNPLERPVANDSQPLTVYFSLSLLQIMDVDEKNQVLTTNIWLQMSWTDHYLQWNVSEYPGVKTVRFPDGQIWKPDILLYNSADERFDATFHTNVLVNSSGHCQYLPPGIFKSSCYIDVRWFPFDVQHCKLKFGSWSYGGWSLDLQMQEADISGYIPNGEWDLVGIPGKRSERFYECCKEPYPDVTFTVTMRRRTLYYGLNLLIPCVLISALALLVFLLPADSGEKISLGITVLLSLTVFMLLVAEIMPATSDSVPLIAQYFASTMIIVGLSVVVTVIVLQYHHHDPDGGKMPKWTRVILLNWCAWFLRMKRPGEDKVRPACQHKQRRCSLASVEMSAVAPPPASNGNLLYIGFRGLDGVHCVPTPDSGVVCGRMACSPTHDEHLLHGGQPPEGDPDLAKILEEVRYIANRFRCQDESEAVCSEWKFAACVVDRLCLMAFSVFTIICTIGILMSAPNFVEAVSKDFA

CC(C)C[C@H](NC(=O)[C@@H](NC(=O)[C@H](C)NC(=O)[C@H](CS)NC(=O)[C@@H]1CCCN1C(=O)[C@@H]1CCCN1C(=O)[C@@H](NC(=O)[C@H](CO)NC(=O)[C@H](CS)NC(=O)[C@H](CS)NC(=O)CN)[C@@H](C)O)C(C)C)C(=O)N[C@@H](Cc1ccc(O)cc1)C(=O)N[C@@H](CS)C(=O)NCC(=O)N[C@@H](CCCNC(=N)N)C(=O)N[C@@H](CCCNC(=N)N)C(=O)N[C@H](C=O)CCCNC(=N)N (H-GCCSTPPCAVLYCGRRR-aldehyde)
1.5 nM: [1] | [2] | [3] | [4] | [5] | [6] | [7]

CC(C)C[C@H](NC(=O)[C@@H](NC(=O)[C@H](C)NC(=O)[C@H](CS)NC(=O)[C@@H]1CCCN1C(=O)[C@@H]1CCCN1C(=O)[C@@H](NC(=O)[C@H](CO)NC(=O)[C@H](CS)NC(=O)[C@H](CS)NC(=O)CN)[C@@H](C)O)C(C)C)C(=O)N[C@@H](Cc1ccc(O)cc1)C(=O)N[C@@H](CS)C(=O)NCC(=O)N[C@@H](CCCN=C(N)N)C(=O)N[C@@H](CCCN=C(N)N)C(=O)N[C@H](C=O)CCCN=C(N)N (H-GCCSTPPCAVLYCGRRR-aldehyde)
1.5 nM: [8] | [9]
